Source: the supplement of paper PMC10307832

How the values were obtained:
Assay in all cases: relative viability (nuclei count vs DMSO), 5 days (fraction); higher = more cells survive
[1] = system: COR-L23
Method in brief: (§1)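 Relative viability is defined as nuclei in treated wells over nuclei in vehicle wells. Duplicate plates were run and medians reported. Lung cancer cell lines in 1536-well plates were dosed by pin tool one day after seeding, with one drug or with a fixed anchor-drug dose plus five library-drug doses (not always all listed) in √10 steps, and nuclei were counted after 5 days.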

[2] = system: H3255
Method in brief: as §1

[3] = system: HCC-15
Method in brief: as §1

[4] = system: HCC-366
Method in brief: as §1

[5] = system: HCC-827
Method in brief: as §1

[6] = system: LC-2-ad
Method in brief: as §1

[7] = system: LCLC-103H
Method in brief: as §1

[8] = system: LXF-289
Method in brief: as §1

[9] = system: NCI-H1437
Method in brief: as §1

[10] = system: NCI-H1666
Method in brief: as §1

[11] = system: NCI-H1975
Method in brief: as §1

[12] = system: NCI-H2009
Method in brief: as §1

[13] = system: NCI-H2085
Method in brief: as §1

[14] = system: NCI-H2087
Method in brief: as §1

[15] = system: NCI-H2228
Method in brief: as §1

[16] = system: NCI-H2342
Method in brief: as §1

[17] = system: NCI-H23
Method in brief: as §1

[18] = system: NCI-H661
Method in brief: as §1

[19] = system: PC-14
Method in brief: as §1

[20] = system: PC-3 [JPC-3]
Method in brief: as §1

[21] = system: SK-MES-1
Method in brief: as §1

[22] = system: UMC-11
Method in brief: as §1

Cc1cn(-c2cc(NC(=O)c3ccc(C)c(Nc4nccc(-c5cccnc5)n4)c3)cc(C(F)(F)F)c2)cn1 [Nilotinib] + CC(=O)Nc1cccc(-n2c(=O)n(C3CC3)c(=O)c3c(Nc4ccc(I)cc4F)n(C)c(=O)c(C)c32)c1 [Trametinib] (partner 0.02 µM)
relative viability ([1]; first compound 0.001 µM): 0.472
relative viability ([1]; first compound 0.003162 µM): 0.419
relative viability ([1]; first compound 0.01 µM): 0.384
relative viability ([1]; first compound 0.03162 µM): 0.283
relative viability ([1]; first compound 0.1 µM): 0.266
relative viability ([2]; first compound 0.001 µM): 0.617
relative viability ([2]; first compound 0.003162 µM): 0.582
relative viability ([2]; first compound 0.03162 µM): 0.53
relative viability ([2]; first compound 0.1 µM): 0.947
relative viability ([3]; first compound 0.001 µM): 0.375
relative viability ([3]; first compound 0.003162 µM): 0.357
relative viability ([3]; first compound 0.01 µM): 0.369
relative viability ([3]; first compound 0.03162 µM): 0.284
relative viability ([3]; first compound 0.1 µM): 0.233
relative viability ([4]; first compound 0.001 µM): 0.35
relative viability ([4]; first compound 0.003162 µM): 0.361
relative viability ([4]; first compound 0.01 µM): 0.327
relative viability ([4]; first compound 0.03162 µM): 0.243
relative viability ([4]; first compound 0.1 µM): 0.145
relative viability ([5]; first compound 0.001 µM): 0.593
relative viability ([5]; first compound 0.003162 µM): 0.523
relative viability ([5]; first compound 0.03162 µM): 0.542
relative viability ([5]; first compound 0.1 µM): 0.469
relative viability ([6]; first compound 0.001 µM): 0.876
relative viability ([6]; first compound 0.003162 µM): 1.09
relative viability ([6]; first compound 0.01 µM): 0.967
relative viability ([6]; first compound 0.03162 µM): 0.596
relative viability ([6]; first compound 0.1 µM): 0.517
relative viability ([7]; first compound 0.001 µM): 0.588
relative viability ([7]; first compound 0.003162 µM): 0.773
relative viability ([7]; first compound 0.01 µM): 0.75
relative viability ([7]; first compound 0.03162 µM): 0.579
relative viability ([7]; first compound 0.1 µM): 0.728
relative viability ([8]; first compound 0.001 µM): 0.686
relative viability ([8]; first compound 0.003162 µM): 0.699
relative viability ([8]; first compound 0.01 µM): 0.701
relative viability ([8]; first compound 0.03162 µM): 0.577
relative viability ([8]; first compound 0.1 µM): 0.466
relative viability ([9]; first compound 0.001 µM): 0.445
relative viability ([9]; first compound 0.003162 µM): 0.541
relative viability ([9]; first compound 0.01 µM): 0.631
relative viability ([9]; first compound 0.03162 µM): 0.382
relative viability ([9]; first compound 0.1 µM): 0.429
relative viability ([10]; first compound 0.001 µM): 0.843
relative viability ([10]; first compound 0.003162 µM): 0.689
relative viability ([10]; first compound 0.01 µM): 0.638
relative viability ([10]; first compound 0.03162 µM): 0.766
relative viability ([10]; first compound 0.1 µM): 0.746
relative viability ([11]; first compound 0.001 µM): 0.338
relative viability ([11]; first compound 0.003162 µM): 0.338
relative viability ([11]; first compound 0.01 µM): 0.308
relative viability ([11]; first compound 0.03162 µM): 0.241
relative viability ([11]; first compound 0.1 µM): 0.234
relative viability ([12]; first compound 0.001 µM): 0.232
relative viability ([12]; first compound 0.003162 µM): 0.203
relative viability ([12]; first compound 0.01 µM): 0.278
relative viability ([12]; first compound 0.03162 µM): 0.2
relative viability ([12]; first compound 0.1 µM): 0.197
relative viability ([13]; first compound 0.001 µM): 0.483
relative viability ([13]; first compound 0.003162 µM): 0.584
relative viability ([13]; first compound 0.01 µM): 0.469
relative viability ([13]; first compound 0.03162 µM): 0.456
relative viability ([13]; first compound 0.1 µM): 0.54
relative viability ([14]; first compound 0.001 µM): 0.189
relative viability ([14]; first compound 0.003162 µM): 0.322
relative viability ([14]; first compound 0.01 µM): 0.153
relative viability ([14]; first compound 0.03162 µM): 0.143
relative viability ([14]; first compound 0.1 µM): 0.126
relative viability ([15]; first compound 0.001 µM): 0.437
relative viability ([15]; first compound 0.003162 µM): 0.552
relative viability ([15]; first compound 0.01 µM): 0.576
relative viability ([15]; first compound 0.03162 µM): 0.255
relative viability ([15]; first compound 0.1 µM): 0.295
relative viability ([16]; first compound 0.001 µM): 0.786
relative viability ([16]; first compound 0.003162 µM): 0.76
relative viability ([16]; first compound 0.01 µM): 0.798
relative viability ([16]; first compound 0.03162 µM): 0.711
relative viability ([16]; first compound 0.1 µM): 0.842
relative viability ([17]; first compound 0.001 µM): 0.319
relative viability ([17]; first compound 0.01 µM): 0.292
relative viability ([17]; first compound 0.03162 µM): 0.202
relative viability ([17]; first compound 0.1 µM): 0.197
relative viability ([18]; first compound 0.001 µM): 0.49
relative viability ([18]; first compound 0.003162 µM): 0.593
relative viability ([18]; first compound 0.01 µM): 0.606
relative viability ([18]; first compound 0.03162 µM): 0.407
relative viability ([18]; first compound 0.1 µM): 0.367
relative viability ([19]; first compound 0.001 µM): 0.671
relative viability ([19]; first compound 0.003162 µM): 1.14
relative viability ([19]; first compound 0.01 µM): 0.708
relative viability ([19]; first compound 0.03162 µM): 0.448
relative viability ([19]; first compound 0.1 µM): 0.526
relative viability ([20]; first compound 0.001 µM): 0.847
relative viability ([20]; first compound 0.01 µM): 0.7
relative viability ([20]; first compound 0.03162 µM): 0.523
relative viability ([20]; first compound 0.1 µM): 0.591
relative viability ([21]; first compound 0.001 µM): 0.581
relative viability ([21]; first compound 0.003162 µM): 0.482
relative viability ([21]; first compound 0.01 µM): 0.492
relative viability ([21]; first compound 0.03162 µM): 0.437
relative viability ([21]; first compound 0.1 µM): 0.339
relative viability ([22]; first compound 0.001 µM): 0.635
relative viability ([22]; first compound 0.003162 µM): 0.801
relative viability ([22]; first compound 0.01 µM): 0.742
relative viability ([22]; first compound 0.03162 µM): 0.446
relative viability ([22]; first compound 0.1 µM): 0.317
